Drawing on patent publication US11660303B2, “2-phenylimidazo[4,5-b]pyridin-7-amine derivates useful as inhibitors of mammalian tyrosine kinase ROR1 activity” (KANCERA AB, priority 2016, dated 2023), this text covers IC50 for 24 molecules.

Each structure is given as a SMILES string. pIC50: −log10 of the molar value.

The test system of one experiment is PBMC from CLL patients. Put plainly: CellTiter-Blue Cell Viability Assay, PBMC from CLL patients. In kind it is cell-based. As to conditions: Homo sapiens, cell toxicity, culture 24, 48 and 72 h (time of the values not stated). On the procedure:
(§1) The CellTiter-Blue® Cell Viability Assay provides a homogeneous, fluorometric method for estimating the number of viable cells present in multi-well plates. The assay uses the indicator dye resazurin to measure the metabolic capacity of cells. Viable cells retain the ability to reduce resazurin into resorufin, which is highly fluorescent.
(§2) Stock solutions (10 or 100 mM in DMSO) of compounds were serially diluted 1:2 in 11 concentrations and 25 nL/well (100 mM stock) or 50 nL/well (10 mM stock) were acoustically dispensed in assay plates with an EDC acoustic dispenser. Final starting concentration in the assay was 20 μM (0.2% DMSO) or 100 μM (0.1% DMSO) for test compounds.
(§3) Peripheral blood mononuclear cells (PBMC) from CLL patients or healthy volunteers were seeded in assay plates (384-well black/clear, Greiner #781091) pre-dispensed with compounds, 25 μL/well, and cultured for 24, 48 and 72 h. The cell concentration was 50 000 cells/well for PBMC from CLL patients or healthy volunteers. After 24, 48 and 72 h culture, Celltiter Blue reagent was added (5 μL/well) and the plates were incubated for 2 h. The plates were read in an Envision fluorescence reader (PerkinElmer) with Ex544 nm/Em590 nm. Results were calculated as % cytotoxicity compared to background (cells treated with 0.2% DMSO).
(§4) Thus, IC50 values for cell toxicity in PBMC from CLL patients as well as healthy volunteers for some compounds of the invention are shown in Table 3 as measured by the CellTiter-Blue® Cell Viability Assay.
(The colour change of resazurin is a common sign of viable cells or microbes.)

In experiment [1] the test system is PBMC from healthy volunteers. Briefly: CellTiter-Blue Cell Viability Assay, PBMC from healthy volunteers. Format: cell-based. The conditions noted are these: Homo sapiens, cell toxicity, culture 24, 48 and 72 h (time of the values not stated). The procedure:
as §1, §2, §3, §4

By pIC50 is commonly meant the IC50 on a negative log10 scale, so that one unit is a factor of ten. Consider `COCCN1CCN(c2ccc(-c3nc4c(NC5CCN(C)CC5)c(Cl)cnc4[nH]3)cc2)CC1=O` [Example 230, 4-(4-{6-Chloro-7-[(1-methylpiperidin-4-yl)amino]-3H-imidazo[4,5-b]pyridin-2-yl}phenyl)-1-(2-methoxyethyl)piperazin-2-one], for which the pIC50 in the experiment with PBMC from CLL patients is 7.15; in experiment [1], below 4.70.
For the molecule `CCN1CCC(Nc2c(Br)cnc3[nH]c(-c4ccc(N5CCN(C(=O)COC)CC5)cc4)nc23)CC1` [Example 239, 6-Bromo-N-(1-ethylpiperidin-4-yl)-2-{4-[4-(methoxyacetyl)piperazin-1-yl]phenyl}-3H-imidazo[4,5-b]pyridin-7-amine], the pIC50 was 7.00 in the experiment on PBMC from CLL patients and below 4.70 in experiment [1].
The matching figures for `COCCCN1CCN(c2ccc(-c3nc4c(NC5CCN(C(C)C)CC5)c(Cl)cnc4[nH]3)cc2)CC1=O` [Example 246, 4-[4-(6-Chloro-7-{[1-(1-methylethyl)piperidin-4-yl]amino}-3H-imidazo[4,5-b]pyridin-2-yl)phenyl]-1-(3-methoxypropyl)piperazin-2-one]: 6.96 and below 4.70.
The matching figures for `CN1CCC(Nc2c(Cl)cnc3[nH]c(-c4ccc(N5CCC(CCO)CC5)cc4)nc23)CC1` [Example 254, 2-[1-(4-{6-Chloro-7-[(1-methylpiperidin-4-yl)amino]-3H-imidazo[4,5-b]pyridin-2-yl}phenyl)piperidin-4-yl]ethanol]: 7.30 and 4.79.
The matching figures for `COCCN1CCN(c2ccc(-c3nc4c(NC5CCN(Cc6ccc(OC)cc6)CC5)c(Cl)cnc4[nH]3)cc2)CC1=O` [Example 260]: 6.66 and below 4.70.
Turning to `CN1CCC(Nc2c(Br)cnc3[nH]c(-c4ccc(N5CCN(CCCO)CC5)cc4)nc23)CC1` [Example 268, 3-[4-(4-{6-Bromo-7-[(1-methylpiperidin-4-yl)amino]-3H-imidazo[4,5-b]pyridin-2-yl}phenyl)piperazin-1-yl]propan-1-ol], the figures for the pIC50 (in the experiment with PBMC from CLL patients; in experiment [1]) were 8.00 and below 4.70, respectively.
Take `COCCC(=O)N1CCN(c2ccc(-c3nc4c(NC5CCN(C)CC5)c(Cl)cnc4[nH]3)cc2)CC1` [Example 276, 6-Chloro-2-{4-[4-(3-methoxypropanoyl)piperazin-1-yl]phenyl}-N-(1-methylpiperidin-4-yl)-3H-imidazo[4,5-b]pyridin-7-amine]: the pIC50 was 7.30 in the experiment on PBMC from CLL patients and below 4.70 in experiment [1].
In the case of `COCCC1CCN(c2ccc(-c3nc4c(NC5CCN(C)CC5)c(Cl)cnc4[nH]3)cc2)CC1` [Example 281, 6-Chloro-2-{4-[4-(2-methoxyethyl)piperidin-1-yl]phenyl}-N-(1-methylpiperidin-4-yl)-3H-imidazo[4,5-b]pyridin-7-amine], the pIC50 in the experiment with PBMC from CLL patients was 7.22; in experiment [1] it was 5.08.
The matching figures for `CN1CCC(Nc2c(Cl)cnc3[nH]c(-c4ccc(N5CCN(Cc6ccccc6)C(=O)C5)cc4)nc23)CC1` [Example 291, 1-Benzyl-4-(4-{6-chloro-7-[(1-methylpiperidin-4-yl)amino]-3H-imidazo[4,5-b]pyridin-2-yl}phenyl)piperazin-2-one]: 7.40 and 5.19.
The matching figures for `CCN1CCC(Nc2c(Br)cnc3[nH]c(-c4ccc(N5CCN(C)C(=O)C5)cc4)nc23)CC1` [Example 299, 4-(4-{6-Bromo-7-[(1-ethylpiperidin-4-yl)amino]-3H-imidazo[4,5-b]pyridin-2-yl}phenyl)-1-methylpiperazin-2-one]: 7.05 and below 4.70.
`CCN1CCC(Nc2c(Br)cnc3[nH]c(-c4ccc(N5CCN(C(=O)c6cccnc6)CC5)cc4)nc23)CC1` [Example 304, 6-Bromo-N-(1-ethylpiperidin-4-yl)-2-{4-[4-(pyridin-3-ylcarbonyl)piperazin-1-yl]phenyl}-3H-imidazo[4,5-b]pyridin-7-amine]: the figures for the pIC50 (in the experiment with PBMC from CLL patients; in experiment [1]) were 7.22 and below 4.70, respectively.
Regarding `COCCCN1CCN(c2ccc(-c3nc4c(NC5CCN(CCOC)CC5)c(Cl)cnc4[nH]3)cc2)CC1` [Example 308, 6-Chloro-N-[1-(2-methoxyethyl)piperidin-4-yl]-2-{4-[4-(3-methoxypropyl)piperazin-1-yl]phenyl}-3H-imidazo[4,5-b]pyridin-7-amine], the results for the pIC50 (with PBMC from CLL patients; in experiment [1]) were 6.19 and below 4.70, respectively.
The matching figures for `CCN1CCC(Nc2c(Cl)cnc3[nH]c(-c4ccc(N5CCN(Cc6cncs6)CC5)cc4)nc23)CC1` [Example 320, 6-Chloro-N-(1-ethylpiperidin-4-yl)-2-{4-[4-(1,3-thiazol-5-ylmethyl)piperazin-1-yl]phenyl}-3H-imidazo[4,5-b]pyridin-7-amine]: 7.00 and below 4.70.
On to `CC(C)N1CCC(Nc2c(Cl)cnc3[nH]c(-c4ccc(N5CCN(CCNc6ccnn6C)CC5)cc4)nc23)CC1` [Example 326, 6-Chloro-N-[1-(1-methylethyl)piperidin-4-yl]-2-[4-(4-{2-[(1-methyl-1H-pyrazol-5-yl)amino]ethyl}piperazin-1-yl)phenyl]-3H-imidazo[4,5-b]pyridin-7-amine], for which the pIC50 was 6.59 with PBMC from CLL patients and below 4.70 in experiment [1].
On the same counts, the results for `CCN1CCC(Nc2c(Br)cnc3[nH]c(-c4ccc(N5CCN(C(=O)c6ccncc6)CC5)cc4)nc23)CC1` [Example 331, 6-Bromo-N-(1-ethylpiperidin-4-yl)-2-{4-[4-(pyridin-4-ylcarbonyl)piperazin-1-yl]phenyl}-3H-imidazo[4,5-b]pyridin-7-amine] are 6.72 and below 4.70.
The matching figures for `CC(C)N1CCC(Nc2c(Br)cnc3[nH]c(-c4ccc(N5CCN(CCC#N)CC5)cc4)nc23)CC1` [Example 337, 3-{4-[4-(6-Bromo-7-{[1-(1-methylethyl)piperidin-4-yl]amino}-3H-imidazo[4,5-b]pyridin-2-yl)phenyl]piperazin-1-yl}propanenitrile]: 6.60 and below 4.70.
The matching figures for `CCOCCN1CCN(c2ccc(-c3nc4c(NC5CC(C)(C)N(C)C(C)(C)C5)c(Br)cnc4[nH]3)cc2)CC1=O` [Example 342, 4-(4-{6-Bromo-7-[(1,2,2,6,6-pentamethylpiperidin-4-yl)amino]-3H-imidazo[4,5-b]pyridin-2-yl}phenyl)-1-(2-ethoxyethyl)piperazin-2-one]: 7.40 and below 4.70.
Take `COCCN1CCN(c2ccc(-c3nc4c(NC5CCN(CC6CC6)CC5)c(Cl)cnc4[nH]3)cc2)CC1=O` [Example 355, 4-[4-(6-Chloro-7-{[1-(cyclopropylmethyl)piperidin-4-yl]amino}-3H-imidazo[4,5-b]pyridin-2-yl)phenyl]-1-(2-methoxyethyl)piperrazin-2-one]: the negative logarithm of the IC50 (pIC50) was 6.96 in the experiment on PBMC from CLL patients and below 4.70 in experiment [1].
In the case of `CCN1CCC(Nc2c(Br)cnc3[nH]c(-c4ccc(N5CCN(C(=O)C(C)(C)C)CC5)cc4)nc23)CC1` [Example 363, 6-Bromo-2-{4-[4-(2,2-dimethylpropanoyl)piperazin-1-yl]phenyl}-N-(1-ethylpiperidin-4-yl)-3H-imidazo[4,5-b]pyridin-7-amine], the pIC50 with PBMC from CLL patients is 6.85; in experiment [1], 5.51.
The matching figures for `COCCN1CCN(c2ccc(-c3nc4c(NC5CCN(C)CC5)c(Cl)cnc4[nH]3)cc2F)CC1` [Example 372, 6-Chloro-2-{3-fluoro-4-[4-(2-methoxyethyl)piperazin-1-yl]phenyl}-N-(1-methylpiperidin-4-yl)-3H-imidazo[4,5-b]pyridin-7-amine]: 6.51 and below 4.70.
On the same counts, the results for `COCCN1CCN(c2ccc(-c3nc4c(NC5CCN(C)CC5)c(Cl)cnc4[nH]3)cc2OC)CC1` [Example 381, 6-Chloro-2-{3-methoxy-4-[4-(2-methoxyethyl)piperazin-1-yl]phenyl}-N-(1-methylpiperidin-4-yl)-3H-imidazo[4,5-b]pyridin-7-amine] are 6.40 and below 4.70.
In the case of `COCCN1CCN(c2ccc(-c3nc4c(NC5CCN(C(C)C)CC5)c(Cl)cnc4[nH]3)cc2OC)CC1` [Example 387, 6-Chloro-2-{3-methoxy-4-[4-(2-methoxyethyl)piperazin-1-yl]phenyl}-N-[1-(1-methylethyl)piperidin-4-yl]-3H-imidazo[4,5-b]pyridin-7-amine], the pIC50 with PBMC from CLL patients is 5.89; in experiment [1], below 4.70.
On the same counts, the results for `COCCN1CCN(c2ccc(-c3nc4c(NC5CCN(CCC#N)CC5)c(Cl)cnc4[nH]3)cc2)CC1` [Example 396, 3-{4-[(6-Chloro-2-{4-[4-(2-methoxyethyl)piperazin-1-yl]phenyl}-3H-imidazo[4,5-b]pyridin-7-yl)amino]piperidin-1-yl}propanenitrile] are 6.72 and below 4.70.
The matching figures for `CCOCCN1CCN(c2ccc(-c3nc4c(NC5CCN(CCC#N)CC5)c(Br)cnc4[nH]3)cc2)CC1=O` [Example 406, 3-{4-[(6-Bromo-2-{4-[4-(2-ethoxyethyl)-3-oxopiperrazin-1-yl]phenyl}-3H-imidazo[4,5-b]pyridin-7-yl)amino]piperidin-1-yl}propanenitrile]: 6.64 and below 4.70.
